Laboratory results from patent US12415799B2, “Indazole-fused cyclic compound” (Zhejiang Yangli Pharmaceutical Technology Co., Ltd., priority 2020, dated 2025).
Where two headings read alike, the source gives them in different places.

Legend:
MCF-7 cells = test: MCF-7 cell proliferation inhibition experiment; assay type: cell-based; details: 6 days incubation, CellTiter-Glo, read-out: Anti-cell proliferation activity of MCF-7
Method: (1) MCF-7 Cell Proliferation Inhibition Experiment:
EMEM culture medium was purchased from Wisent, and fetal bovine serum was purchased from Biosera, Promega CellTiter-Glo reagent. MCF-7 cell line was purchased from Cell Bank of Type Culture Collection of Chinese Academy of Sciences. Nivo5 multi-label analyzer (PerkinElmer).
MCF-7 cells were seeded in a white 384-well plate with 600 cells per well in every […] of the cell suspension. The cell plate was placed in a carbon dioxide incubator and cultured overnight.
The test compound was diluted to the 10th concentration with a multi-channel pipette, and the compound concentration was 1 mM, 400 μM, and 80 μM, and then diluted to the 10th concentration of 1 nM in turn, and a double-duplicate experiment was set-up. 47.5 μL of culture medium was added to the middle plate, then 2.5 μL of gradient dilution compound per well was transferred to the middle plate according to the corresponding position, and 5 μL of the mixture per well was mixed evenly and transferred to the cell plate. The cell plate was placed in a carbon dioxide incubator and cultured for 6 days.
After 6 days of co-incubation of the compound, the culture medium was removed by centrifugation, and 25 μL of Promega CellTiter-Glo reagent was added to each well of the cell plate, and incubated at room temperature for 10 minutes to stabilize the luminescence signal. PerkinElmer Nivo multi-marker analyzer reading was used. In the experiment, the reading of 2 μM positive reference compound H3B-6545(US20160347717A1) was used as a positive control to participate in data calculation.
The equation % Inhibition=((RFUCmpd−AVER(RFUNeg.ctrl))/((AVER(RFUPos.Ctrl)−AVER(RFUNeg.ctrl))×100% was used to convert the original data into inhibition rate, and the compound curve was fitted by log(inhibitor)vs. response-Variable slope of Graphpad Prism 5. The IC50 value was calculated by the software through the formula Y=Bottom+(Top−Bottom)/(1+10^((Log IC50−X)*HillSlope)).

[1] = test system: MCF-7 breast cancer cell xenograft; test: In vivo efficacy, MCF-7 breast cancer cell xenograft model; design: species or system BALB/c nude mice
Method: The purpose of this experiment was to evaluate the antitumor effect of the compound of the present disclosure on MCF-7 breast cancer cell xenograft BALB/c nude mice (provided by the Experimental Animal Management Department of the Shanghai Institute of Family Planning Sciences, and the number of test animals in each experimental group was 5) model.
Mice were subcutaneously inoculated with 0.36 mg, 60-day slow-release estrogen tablets in the left shoulder three days before inoculation. When the cells were in the logarithmic growth phase, the cells were collected and counted, and the cell concentration was adjusted to 10×10^7 cells/mL, and an equal volume of Matrigel was added to mix evenly and then used for inoculation. Each mouse was subcutaneously inoculated with 0.2 mL of MCF-7 tumor cell suspension (10×10^6) on the right shoulder. On day 9 after tumor cell inoculation, the average tumor volume was 160 mm^3 and the body weight was 22.0 to 23.0 g, which was administered in groups and administered once a day. Tumor volume and weight measurements were performed twice a week after grouping, and tumor proliferation rate (T/C) and tumor growth inhibition rate (TGI) were calculated for the last tumor volume data on the day 21 after grouping, and the antitumor effect of compounds was evaluated by TGI (%) or relative tumor proliferation rate T/C (%). TGI (%), reflecting the tumor growth inhibition rate. TGI (%)=[(1-(average tumor volume at the end of administration of a certain treatment group-average tumor volume at the beginning of administration of this treatment group)/(average tumor volume at the end of treatment in the solvent control group-average tumor volume at the beginning of treatment in this solvent control group)]×100%, relative tumor proliferation rate T/C (%)=TRTV/CRTV×100% (TRTV: average RTV of the treatment group; CRTV: average RTV of the negative control group). The relative tumor volume (RTV) was calculated according to the results of tumor measurement, and the formula was RTV=Vt/V0, wherein V0 was the average tumor volume measured at the time of group administration (i.e., D0), and Vt was the tumor volume at a certain measurement, TRTV and CRTV were taken on the same day.

CYP3A4 = CYP3A4 (Homo sapiens (Human), UniProt P08684); test: Cytochrome P450 isoenzyme inhibition, human liver microsomes; assay type: in vitro ADME
Method: Experimental purposes: To test the inhibitory effect of test compound on the activity of human liver microsomal cytochrome P450 isoenzymes (CYP1A2 and CYP3A4) (Corning, Co., Ltd.).
Experimental operation: Firstly, the test compound (10 mM) was subjected to gradient dilution to prepare a working solution (100×final concentration), and the concentration of the working solution was: 5, 1.5, 0.5, 0.15, 0.05, 0.015 and 0.005 mM, respectively, and the working solution of each positive inhibitor of P450 isoenzyme (CYP1A2 and CYP3A4) and its specific substrate mixture (5 in 1) were prepared; and then the human liver microsomes frozen in the −80° C. refrigerator were thawed on ice, and all the human liver microsomes were dissolved, diluted with PB, and a certain concentration of working solution (0.253 mg/mL) was prepared; 20 μL of substrate mixture was added to the reaction plate (20 μL of PB was added to the blank well), while 158 μL of human liver microsomal working solution was added to the reaction plate, and the reaction plate was placed on ice for later use; at this time, 2 μL of various concentrations of the test compound (N=1) and specific inhibitor (N=2) were added to the corresponding well, and the corresponding organic solvent was added to the non-inhibitor (test compound or positive inhibitor) group as a control group sample (a ratio of DMSO:MeOH in the test compound control sample was 1:1, a ratio of DMSO:MeOH in the positive control sample was 1:9); after pre-incubation in a water bath at 37° C. for 10 min, 20 μL of coenzyme factor (NADPH) solution was added to the reaction plate, and incubated in a water bath at 37° C. for 10 min; and 400 μL of cold acetonitrile solution (internal standard was 200 ng/mL tolbutamide and labetalol) was added to terminate the reaction; the reaction plate was placed on a shaker and shaked for 10 minutes; and then centrifuged at 4,000 rpm for 20 minutes; 200 μL of the supernatant was taken and added to 100 μL of water for sample dilution; finally the plate was sealed, shaked and shaked well, for LC/MS/MS detection.

Chain of CYP3A4 (P08684 whole entry): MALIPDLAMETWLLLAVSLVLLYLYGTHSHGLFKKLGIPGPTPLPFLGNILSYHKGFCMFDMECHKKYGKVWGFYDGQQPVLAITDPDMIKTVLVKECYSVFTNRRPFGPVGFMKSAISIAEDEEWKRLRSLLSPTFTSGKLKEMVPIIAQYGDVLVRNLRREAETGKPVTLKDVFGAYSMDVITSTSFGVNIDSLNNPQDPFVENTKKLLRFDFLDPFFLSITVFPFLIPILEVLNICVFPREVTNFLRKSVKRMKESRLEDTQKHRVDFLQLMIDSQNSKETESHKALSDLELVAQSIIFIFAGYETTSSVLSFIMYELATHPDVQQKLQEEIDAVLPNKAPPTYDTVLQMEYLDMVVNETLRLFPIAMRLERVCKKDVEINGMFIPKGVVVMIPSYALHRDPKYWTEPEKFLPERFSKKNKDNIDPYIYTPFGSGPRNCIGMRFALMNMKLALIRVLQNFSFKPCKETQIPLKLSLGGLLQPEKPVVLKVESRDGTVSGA

| IC50 (MCF-7 cells; Homo sapiens, MCF7, 144 h) [µM] | IC50 (CYP3A4) [µM] | IC50 (MCF-7 cells) [µM] | SMILES | Tumor volume ([1]; Day 0, 5 mg/kg once a day) [mm^3] | Tumor volume ([1]; Day 4, 5 mg/kg once a day) [mm^3] | Tumor volume ([1]; Day 7, 5 mg/kg once a day) [mm^3] | Tumor volume ([1]; Day 11, 5 mg/kg once a day) [mm^3] | Tumor volume ([1]; Day 14, 5 mg/kg once a day) [mm^3] | Tumor volume ([1]; Day 18, 5 mg/kg once a day) [mm^3] | T/C (%) (Day 21) ([1]; Day 21, 5 mg/kg once a day) | TGI (%) (Day 21) ([1]; Day 21, 5 mg/kg once a day) | Tumor volume ([1]; Day 21, 5 mg/kg once a day) [mm^3] |
| --- | --- | --- | --- | --- | --- | --- | --- | --- | --- | --- | --- | --- |
| 0.00042 | 47.2 |  | FCCCN1CC(Nc2ccc(C3=C(CC(F)(F)F)CCCc4c3ccc3[nH]nc(F)c43)nc2)C1 [Compound 2] | 161 | 169 | 182 | 186 | 163 | 133 | 12.3 | 106 | 118 |
|  | 25.7 | 0.00017 | FCCCN1CC[C@H](Nc2cnc(C3=C(CC(F)(F)F)CCCc4c3ccc3[nH]nc(F)c43)cn2)C1 [Compound 11A] | 160 | 184 | 195 | 200 | 176 | 126 | 12.8 | 107 | 112 |
